Measured values: patent US20130053243A1, “PLANTS HAVING INCREASED TOLERANCE TO HERBICIDES” (BASF SE, priority 2010, published 2013)

What was measured:
Test in all cases: HPPD activity assay, mutant enzyme
Assay type in all cases: biochemical
[1] = biological target: T1, Arabidopsis HPPD variant L385V (Arabidopsis thaliana, UniProt P93836, L385V)
T1 construct: His6 (N); made in house; host or cells: E. coli BL21 (DE3)
Experimental: (§1) HPPD produces homogentisic acid and CO2 from 4-hydroxyphenylpyruvate (4-HPP) and O2. The activity assay for HPPD is based on the analysis of homogentisic acid by reversed phase HPLC.
(§2) The assay mixture can contain 150 mM potassium phosphate buffer pH 7.0, 50 mM L-ascorbic acid, 1 μM FeSO4 and 7 μg of purified enzyme in a total volume of 1 ml.
(§3) Inhibitors are dissolved in DMSO (dimethylsulfoxide) to a concentration of 20 mM or 0.5 mM, respectively. From this stock solution serial five-fold dilutions are prepared in DMSO, which are used in the assay. The respective inhibitor solution accounts for 1% of the assay volume. Thus, final inhibitor concentrations range from 200 μM to 2.5 nM or from 5 μM to 63 pM, respectively.
(§4) After a preincubation of 30 min the reaction is started by adding 4-HPP to a final concentration of 0.1 mM. The reaction is allowed to proceed for 120 min at room temperature. The reaction is stopped by addition of 100 μl of 4.5 M phosphoric acid.
(§5) The sample is extracted on an Oasis® HLB cartridge 3 cc/60 mg (Waters) that was preequilibrated with 63 mM phosphoric acid. L-ascorbic acid is washed out with 3 ml of 63 mM phosphoric acid. Homogentisate is eluted with 1 ml of a 1:1 mixture of 63 mM phosphoric acid and methanol (w/w).
(§6) 10 μl of the eluate is analyzed by reversed phase HPLC on a Symmetry® C18 column (particle size 3.5 μm, dimensions 4.6×100 mm; Waters) using 5 mM H3PO4/15% ethanol (w/w) as an eluent.
(§7) Homogentisic acid is detected electrochemically and quantified by measuring peak areas (Empower software; Waters).
(§8) Activities are normalized by setting the uninhibited enzyme activity to 100%. IC50 values are calculated using non-linear regression.
(§9) The assay mixture can contain 150 mM potassium phosphate buffer pH 7.0, 50 mM L-ascorbic acid, 100 μM Catalase (Sigma-Aldrich), 1 μM FeSO4 and 0.2 units of purified HPPD enzyme in a total volume of 505 μl. 1 unit is defined as the amount of enzyme that is required to produce 1 nmol of HGA per minute at 20° C.
(§10) After a preincubation of 30 min the reaction is started by adding 4-HPP to a final concentration of 0.05 mM. The reaction is allowed to proceed for 45 min at room temperature. The reaction is stopped by the addition of 50 μl of 4.5 M phosphoric acid. The sample is filtered using a […] pore size PVDF filtration device.
(§11) 5 μl of the cleared sample is analyzed on an Atlantis T3 column (particle size 3 μm, dimensions 3×50 mm; Waters) by isocratic elution using 90% 10 mM NaH2PO4 pH 2.2, 10% methanol (v/v).
(§12) HGA is detected electrochemically at 750 mV (mode: DC; polarity: positive) and quantified by integrating peak areas (Empower software; Waters).
(§13) Inhibitors are dissolved in DMSO (dimethylsulfoxide) to a concentration of 0.5 mM. From this stock solution serial five-fold dilutions are prepared in DMSO, which are used in the assay. The respective inhibitor solution accounts for 1% of the assay volume. Thus, final inhibitor concentrations range from 5 μM to 320 pM, respectively. Activities are normalized by setting the uninhibited enzyme activity to 100%. IC50 values are calculated using non-linear regression.
(§14) Purified, mutant HPPD enzymes are obtained by the methods described above. Dose response and kinetic measurements are carried out using the described HPPD activity assay. Apparent michaelis constants (Km) and maximal reaction velocities (Vmax) are calculated by non-linear regression with the software GraphPad Prism 5 (GraphPad Software, La Jolla, USA) using a substrate inhibition model. Apparent kcat values are calculated from Vmax assuming 100% purity of the enzyme preparation. Weighted means (by standard error) of Km and IC50 values are calculated from at least three independent experiments. The Cheng-Prusoff equation for competitive inhibition (Cheng, Y. C.; Prusoff, W. H. Biochem Pharmacol 1973, 22, 3099-3108) is used to calculate dissociation constants (Ki). Examples of the data obtained are depicted in Table 13.

[2] = biological target: T2, Arabidopsis HPPD variant M335N (Arabidopsis thaliana, UniProt P93836, M335N)
T2 construct: His6 (N); made in house; host or cells: E. coli BL21 (DE3)
Experimental: as §1, §2, §3, §4, §5, §6, §7, §8, §9, §10, §11, §12, §13, §14

[3] = biological target: T3, Arabidopsis HPPD variant M335Q (Arabidopsis thaliana, UniProt P93836, M335Q)
T3 construct: His6 (N); made in house; host or cells: E. coli BL21 (DE3)
Experimental: as §1, §2, §3, §4, §5, §6, §7, §8, §9, §10, §11, §12, §13, §14

T1 sequence (P93836 whole entry L385V): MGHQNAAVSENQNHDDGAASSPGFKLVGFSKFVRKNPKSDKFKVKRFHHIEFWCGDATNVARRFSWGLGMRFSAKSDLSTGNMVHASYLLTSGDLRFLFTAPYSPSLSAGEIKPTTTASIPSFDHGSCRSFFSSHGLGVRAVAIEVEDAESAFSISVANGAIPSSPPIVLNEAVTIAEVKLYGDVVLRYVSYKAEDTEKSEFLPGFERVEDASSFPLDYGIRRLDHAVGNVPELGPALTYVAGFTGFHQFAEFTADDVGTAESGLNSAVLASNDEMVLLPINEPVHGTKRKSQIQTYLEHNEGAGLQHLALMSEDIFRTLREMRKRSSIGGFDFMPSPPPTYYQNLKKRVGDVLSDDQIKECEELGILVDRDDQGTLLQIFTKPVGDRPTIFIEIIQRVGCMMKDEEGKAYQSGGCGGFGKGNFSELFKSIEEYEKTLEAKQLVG
T3 sequence (P93836 whole entry M335Q): as the sequence (P93836 whole entry L385V) above, with M335Q, V385L counted along it
T2 sequence (P93836 whole entry M335N): as the sequence (P93836 whole entry L385V) above, with M335N, V385L counted along it

SMILES: CC1=NOC(c2c(Cl)ccc(C3=C(O)c4ncccc4N(CC(F)F)S3(=O)=O)c2Cl)C1 (stereo not drawn) [Inhibitor 1, 3-[2,4-dichloro-3-(3-methyl-4,5-dihydroisoxazol-5-yl)phenyl]-1-(2,2-difluoroethyl)-2,2-dioxo-pyrido[3,2-c]thiazin-4-ol]
- Ki [1]: 19 nM
- Ki [2]: 20 nM
- Ki [3]: 24 nM
